# Reference: patent US10508088B2, “Methods using HDAC11 inhibitors” (FORMA Therapeutics, Inc., priority 2016, dated 2019)
# Target: Full length human recombinant HDAC11 (Homo sapiens (Human), UniProt Q96DB2)
# Assay: Enzymatic HDAC11 assay, electrophoretic mobility shift
# Assay type: biochemical
# Conditions: substrate FAM-RHKK(tri-fluor-Ac)-NH2, read-out: HDAC11 IC50 Range
# Method: The enzymatic HDAC11 assay was performed using electrophoretic mobility shift assay. Full length human recombinant HDAC11 protein was expressed in baculoviral system and purified by affinity chromatography. The enzymatic reactions were assembled in 384 well plates in a total volume of 25 μL in a reaction buffer composing: 100 mM HEPES, pH 7.5, 25 mM KCl, 0.1% bovine serum albumin, 0.01% Triton X-100, 1% DMSO (from compounds) 2 μM of the fluorescently labeled peptide substrate and enzyme. The enzyme was added at a final concentration of 10 nM. The peptide substrate FAM-RHKK(tri-fluor-Ac)-NH2 was used. The compounds were tested at 12 concentrations spaced by 3× dilution intervals. Negative control samples (0%-inhibition in the absence of inhibitor) and positive control samples (100%-inhibition) were assembled in replicates of four in each assay plate. The reactions were incubated at 25° C. and quenched by the addition of 45 μL of termination buffer (100 mM HEPES, pH 7.5, 0.01% Triton X-100, 0.05% SDS).
# The terminated assay plates were analyzed on LabChip® 3000 microfluidic electrophoresis instrument (Perkin Elmer/Caliper Life Sciences). The fluorescence intensity of the electrophoretically separated de-acetylated product and substrate peptide was measured. Activity in each sample was determined as the product to sum ratio (PSR):P/(S+P), where P is the peak height of the product peptide and S is the peak height of the substrate peptide. Percent inhibition (Pinh) is determined using the following equation: Pinh=(PSR0%−PSRinh)/(PSR0%−PSR100%)*100,
# where PSRinh is the product sum ratio in the presence of inhibitor, PSR0% is the average product sum ration in the absence of inhibitor and PSR100% is the average product sum ratio in 100%-inhibition control samples. The IC50 values of inhibitors were determined by fitting the percent inhibition curves with 4 parameter dose-response model using XLfit 4 software.
# Sequence of Full length human recombinant HDAC11 (Q96DB2 whole entry): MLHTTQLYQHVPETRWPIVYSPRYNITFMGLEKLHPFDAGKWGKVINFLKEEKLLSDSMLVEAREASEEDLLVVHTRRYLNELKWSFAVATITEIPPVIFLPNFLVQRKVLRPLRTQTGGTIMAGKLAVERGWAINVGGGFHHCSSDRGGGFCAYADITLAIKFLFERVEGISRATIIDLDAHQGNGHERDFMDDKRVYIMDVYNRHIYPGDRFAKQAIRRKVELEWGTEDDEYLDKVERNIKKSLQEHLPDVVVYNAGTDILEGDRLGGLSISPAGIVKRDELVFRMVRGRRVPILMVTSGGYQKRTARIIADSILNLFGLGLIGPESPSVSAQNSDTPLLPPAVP
row,Compound,IC50 [nM]
1,"O=C(NO)c1cccc2c1CC1(CCN(Cc3ccc(OCc4ccccc4)cc3)C1=O)C2 (centres unmarked) [II-41, 1′-(4-(benzyloxy)benzyl)-N-hydroxy-2′-oxo-1,3-dihydrospiro[indene-2,3′-pyrrolidine]-4-carboxamide]",< 500
2,"O=C(NO)c1cccc2c1CC1(CCN(Cc3ccc(C(F)(F)F)cc3)C1)C2 (centres unmarked) [II-56, N-hydroxy-1′-(4-(trifluoromethyl)benzyl)-1,3-dihydrospiro[indene-2,3′-pyrrolidine]-4-carboxamide]",500 to 1000
3,"O=C(NO)c1cccc2c1CC1(CCN(C(=O)c3ccc(C(F)(F)F)cc3)C1)C2 (centres unmarked) [II-58, N-hydroxy-1′-(4-(trifluoromethyl)benzoyl)-1,3-dihydrospiro[indene-2,3′-pyrrolidine]-4-carboxamide]",> 1000
4,"CC(=O)N1CCC2(CC1)Cc1cccc(C(=O)NO)c1C2 [II-60, 1′-acetyl-N-hydroxy-1,3-dihydrospiro[indene-2,4′-piperidine]-4-carboxamide]",> 1000
5,"O=C(NO)c1cccc2c1CC1(CCN(C(=O)c3ccc(Cl)cc3)CC1)C2 [II-61, 1′-(4-chlorobenzoyl)-N-hydroxy-1,3-dihydrospiro[indene-2,4′-piperidine]-4-carboxamide]",> 1000
6,"O=C(NO)c1cccc2c1CC1(CCN(Cc3ccc(Cl)cc3)CC1)C2 [II-62, 1′-(4-chlorobenzyl)-N-hydroxy-1,3-dihydrospiro[indene-2,4′-piperidine]-4-carboxamide]",> 1000
7,"O=C(NO)c1cccc2c1CC1(CCN(Cc3ccccc3)CC1)C2 [II-64, 1′-benzyl-N-hydroxy-1,3-dihydrospiro[indene-2,4′-piperidine]-4-carboxamide]",> 1000
8,"O=C(NO)c1cccc2c1CC1(CCN(Cc3ccccc3)CC1)C2=O [II-65, 1′-benzyl-N-hydroxy-1-oxo-1,3-dihydrospiro[indene-2,4′-piperidine]-4-carboxamide]",> 1000
9,"O=C(NO)c1cccc2c1CC1(CCN(Cc3ccccc3)CC1)C2O (centres unmarked) [II-66, 1′-benzyl-N,1-dihydroxy-1,3-dihydrospiro[indene-2,4′-piperidine]-4-carboxamide]",> 1000
10,"O=C(NO)c1cccc2c1CC1(CC2)CCN(Cc2ccc(Cl)c(C(F)(F)F)c2)C1=O (centres unmarked) [II-67, 1′-(4-chloro-3-(trifluoromethyl)benzyl)-N-hydroxy-2′-oxo-3,4-dihydro-1H-spiro[naphthalene-2,3′-pyrrolidine]-8-carboxamide]",< 500
11,"O=C(NO)c1cccc2c1CC1(CC2)CCN(Cc2ccc(C(F)(F)F)c(F)c2)C1=O (centres unmarked) [II-68, 1′-(3-fluoro-4-(trifluoromethyl)benzyl)-N-hydroxy-2′-oxo-3,4-dihydro-1H-spiro[naphthalene-2,3′-pyrrolidine]-8-carboxamide]",< 500
12,"O=C(NO)c1cccc2c1CC1(CC2)CCN(Cc2ccc(C(F)(F)F)cc2)C1=O (centres unmarked) [II-70, N-hydroxy-2′-oxo-1′-(4-(trifluoromethyl)benzyl)-3,4-dihydro-1H-spiro[naphthalene-2,3′-pyrrolidine]-8-carboxamide]",500 to 1000
13,"O=C(NO)c1cccc2c1CC1(CC2)CCN(c2ccc(C(F)(F)F)cc2)C1=O (centres unmarked) [II-71, N-hydroxy-2′-oxo-1′-(4-(trifluoromethyl)phenyl)-3,4-dihydro-1H-spiro[naphthalene-2,3′-pyrrolidine]-8-carboxamide]",500 to 1000
14,"O=C(NO)c1cccc2c1CC1(CC2)CCN(c2cccc(C(F)(F)F)c2)C1=O (centres unmarked) [II-72, N-hydroxy-2′-oxo-1′-(3-(trifluoromethyl)phenyl)-3,4-dihydro-1H-spiro[naphthalene-2,3′-pyrrolidine]-8-carboxamide]",> 1000

# Second part, the compound after the results:
row,IC50 [nM],Compound
1,< 500,"O=C(NO)c1cccc2c1CC1(CCN(Cc3ccccc3-c3ccccc3)C1=O)C2 (centres unmarked) [II-37, 1′-([1,1′-biphenyl]-2-ylmethyl)-N-hydroxy-2′-oxo-1,3-dihydrospiro[indene-2,3′-pyrrolidine]-4-carboxamide]"
2,< 500,"O=C(NO)c1cccc2c1CC1(CCN(Cc3ccc(Cl)c(Cl)c3)C1=O)C2 (centres unmarked) [II-38, 1′-(3,4-dichlorobenzyl)-N-hydroxy-2′-oxo-1,3-dihydrospiro[indene-2,3′-pyrrolidine]-4-carboxamide]"
3,500 to 1000,"Cc1ccc(CN2CCC3(Cc4cccc(C(=O)NO)c4C3)C2=O)cc1C (centres unmarked) [II-39, 1′-(3,4-dimethylbenzyl)-N-hydroxy-2′-oxo-1,3-dihydrospiro[indene-2,3′-pyrrolidine]-4-carboxamide]"
4,> 1000,"COc1cc(CN2CCC3(Cc4cccc(C(=O)NO)c4C3)C2=O)cc(OC)c1 (centres unmarked) [II-40, 1′-(3,5-dimethoxybenzyl)-N-hydroxy-2′-oxo-1,3-dihydrospiro[indene-2,3′-pyrrolidine]-4-carboxamide]"
5,< 500,"O=C(NO)c1cccc2c1CC1(CCN(Cc3cccc(OC(F)(F)F)c3)C1=O)C2 (centres unmarked) [II-42, N-hydroxy-2′-oxo-1′-(3-(trifluoromethoxy)benzyl)-1,3-dihydrospiro[indene-2,3′-pyrrolidine]-4-carboxamide]"
6,< 500,"O=C(NO)c1cccc2c1CC1(CCN(Cc3cccc(C(F)(F)F)c3F)C1=O)C2 (centres unmarked) [II-43, 1′-(2-fluoro-3-(trifluoromethyl)benzyl)-N-hydroxy-2′-oxo-1,3-dihydrospiro[indene-2,3′-pyrrolidine]-4-carboxamide]"
7,> 1000,"O=C(NO)c1cccc2c1CC1(CCN(CC3CCCCC3)C1=O)C2 (centres unmarked) [II-44, 1′-(cyclohexylmethyl)-N-hydroxy-2′-oxo-1,3-dihydrospiro[indene-2,3′-pyrrolidine]-4-carboxamide]"
8,500 to 1000,"O=C(NO)c1cccc2c1CC1(CCN(Cc3cc(Cl)ccc3Cl)C1=O)C2 (centres unmarked) [II-45, 1′-(2,5-dichlorobenzyl)-N-hydroxy-2′-oxo-1,3-dihydrospiro[indene-2,3′-pyrrolidine]-4-carboxamide]"
9,> 1000,"O=C(NO)c1cccc2c1CC1(CCN(Cc3cc(-c4ccccc4)no3)C1=O)C2 (centres unmarked) [II-46, N-hydroxy-2′-oxo-1′-((3-phenylisoxazol-5-yl)methyl)-1,3-dihydrospiro[indene-2,3′-pyrrolidine]-4-carboxamide]"
10,> 1000,"O=C(NO)c1cccc2c1CC1(CCN(Cc3ccc(-n4cccn4)nc3)C1=O)C2 (centres unmarked) [II-47, 1′-((6-(1H-pyrazol-1-yl)pyridin-3-yl)methyl)-N-hydroxy-2′-oxo-1,3-dihydrospiro[indene-2,3′-pyrrolidine]-4-carboxamide]"
11,> 1000,"O=C(NO)c1cccc2c1CC1(CCN(Cc3ccc(C(F)(F)F)nc3)C1=O)C2 (centres unmarked) [II-48, N-hydroxy-2′-oxo-1′-((6-(trifluoromethyl)pyridin-3-yl)methyl)-1,3-dihydrospiro[indene-2,3′-pyrrolidine]-4-carboxamide]"
12,> 1000,"O=C(NO)c1cccc2c1CC1(CCN(Cc3noc(C4CCOCC4)n3)C1=O)C2 (centres unmarked) [II-49, N-hydroxy-2′-oxo-1′-((5-(tetrahydro-2H-pyran-4-yl)-1,2,4-oxadiazol-3-yl)methyl)-1,3-dihydrospiro[indene-2,3′-pyrrolidine]-4-carboxamide]"
13,> 1000,"Cc1noc(C)c1CN1CCC2(Cc3cccc(C(=O)NO)c3C2)C1=O (centres unmarked) [II-50, 1′-((3,5-dimethylisoxazol-4-yl)methyl)-N-hydroxy-2′-oxo-1,3-dihydrospiro[indene-2,3′-pyrrolidine]-4-carboxamide]"
14,> 1000,"O=C(NO)c1cccc2c1CC1(CCN(Cc3cccc(C(F)(F)F)n3)C1=O)C2 (centres unmarked) [II-51, N-hydroxy-2′-oxo-1′-((6-(trifluoromethyl)pyridin-2-yl)methyl)-1,3-dihydrospiro[indene-2,3′-pyrrolidine]-4-carboxamide]"
15,> 1000,"O=C(NO)c1cccc2c1CC1(CCN(CCN3CCOCC3)C1=O)C2 (centres unmarked) [II-52, N-hydroxy-1′-(2-morpholinoethyl)-2′-oxo-1,3-dihydrospiro[indene-2,3′-pyrrolidine]-4-carboxamide]"
16,> 1000,O=C(NO)c1cccc2c1CC1(CCN(Cc3cn(-c4ccccc4)nn3)C1=O)C2 (centres unmarked) [II-53]
17,> 1000,"O=C(NO)c1cccc2c1CC1(CCN(CC3CC3)C1=O)C2 (centres unmarked) [II-55, 1′-(cyclopropylmethyl)-N-hydroxy-2′-oxo-1,3-dihydrospiro[indene-2,3′-pyrrolidine]-4-carboxamide]"
18,> 1000,"O=C(NO)c1cccc2c1CC1(CCN(C3CC3)C1)C2 (centres unmarked) [II-57, 1′-cyclopropyl-N-hydroxy-1,3-dihydrospiro[indene-2,3′-pyrrolidine]-4-carboxamide]"
19,> 1000,"CC(=O)N1CCC2(Cc3cccc(C(=O)NO)c3C2)C1 (centres unmarked) [II-59, 1′-acetyl-N-hydroxy-1,3-dihydrospiro[indene-2,3′-pyrrolidine]-4-carboxamide]"
20,> 1000,"O=C(NO)c1cccc2c1CC1(CCN(C3CC3)CC1)C2 [II-63, 1′-cyclopropyl-N-hydroxy-1,3-dihydrospiro[indene-2,4′-piperidine]-4-carboxamide]"
21,> 1000,"O=C(NO)c1cccc2c1CC1(CC2)CCN(Cc2ccc(Cl)cc2)C1=O (centres unmarked) [II-69, 1′-(4-chlorobenzyl)-N-hydroxy-2′-oxo-3,4-dihydro-1H-spiro[naphthalene-2,3′-pyrrolidine]-8-carboxamide]"
